Reference: US20040024231A1, “17Alpha fluoroalkyl steroids, method for producing the same and pharmaceutical compositions containing said compounds” (priority 2000, published 2004)

Molecular target: T1, androgen receptors (Homo sapiens, UniProt P10275)
T1 sequence (P10275 1-920): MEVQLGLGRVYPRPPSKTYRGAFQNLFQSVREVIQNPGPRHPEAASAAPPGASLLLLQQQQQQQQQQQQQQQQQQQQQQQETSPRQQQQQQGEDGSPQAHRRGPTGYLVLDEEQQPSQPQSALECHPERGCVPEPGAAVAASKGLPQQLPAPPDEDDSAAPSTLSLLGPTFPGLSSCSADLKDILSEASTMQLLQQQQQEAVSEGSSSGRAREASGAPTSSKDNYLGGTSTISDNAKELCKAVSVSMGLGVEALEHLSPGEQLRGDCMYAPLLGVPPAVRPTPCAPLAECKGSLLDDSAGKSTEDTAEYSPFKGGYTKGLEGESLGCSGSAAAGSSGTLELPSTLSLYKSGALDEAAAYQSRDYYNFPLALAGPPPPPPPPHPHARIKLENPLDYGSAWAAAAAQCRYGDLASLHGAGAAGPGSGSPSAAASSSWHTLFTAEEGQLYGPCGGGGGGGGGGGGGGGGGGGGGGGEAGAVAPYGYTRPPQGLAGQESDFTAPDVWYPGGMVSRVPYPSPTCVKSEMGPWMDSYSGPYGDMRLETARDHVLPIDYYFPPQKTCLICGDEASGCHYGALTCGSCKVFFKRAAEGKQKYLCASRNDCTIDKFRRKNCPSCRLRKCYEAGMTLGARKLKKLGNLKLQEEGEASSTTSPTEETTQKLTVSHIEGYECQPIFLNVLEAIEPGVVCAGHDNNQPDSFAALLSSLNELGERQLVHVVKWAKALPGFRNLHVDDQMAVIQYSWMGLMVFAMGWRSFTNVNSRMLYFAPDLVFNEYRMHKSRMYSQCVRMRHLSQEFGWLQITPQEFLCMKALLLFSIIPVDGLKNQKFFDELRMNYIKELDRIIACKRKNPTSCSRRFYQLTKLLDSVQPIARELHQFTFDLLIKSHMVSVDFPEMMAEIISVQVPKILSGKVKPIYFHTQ
Experiment: receptor binding affinities to the androgen receptors (RBA)
Details: receptor binding affinity to the androgen receptors; R 1881 (Methyltrienolone) = 100

SMILES | RBA [%]
CC12CCC3C4CCC(=O)C(O)=C4CCC3C1CCC2(O)C(F)(F)C(F)(F)F (stereo not drawn) [17β,4-Dihydroxy-17α-pentafluoroethyl-estr-4-en-3-one] | 20
CC12CCC3C4CCC(=O)C(O)=C4CCC3C1CCC2(O)C(F)(F)F (stereo not drawn) [17β,4-Dihydroxy-17α-trifluoromethyl-estr-4-en-3-one] | 15
CC12CCC(=O)C=C1CCC1C2C(O)CC2(C)C1CCC2(O)C(F)(F)F (stereo not drawn) [17β,11β-Dihydroxy-17α-trifluoromethyl-androst-4-en-3-one] | 8.6
CC12CCC3C4CCC(=O)C(Cl)=C4CCC3C1CCC2(O)C(F)(F)C(F)(F)F (stereo not drawn) [17β-Hydroxy-17α-pentafluoroethyl-4-chloro-estr-4-en-3-one] | 27
CC1CC2=CC(=O)CCC2C2CCC3(C)C(CCC3(O)C(F)(F)C(F)(F)F)C12 (stereo not drawn) [17β-Hydroxy-17α-pentafluoroethyl-7α-methyl-estr-4-en-3-one] | 34
CC12CCC3C4CCC(=O)C=C4CCC3C1CCC2(O)C(F)(F)C(F)(F)F (stereo not drawn) [17β-Hydroxy-17α-pentafluoroethyl-estr-4-en-3-one] | 21
CC12CCC(=O)C(Cl)=C1CCC1C2CCC2(C)C1CCC2(O)C(F)(F)F (stereo not drawn) [17β-Hydroxy-17α-trifluoromethyl-4-chloro-androst-4-en-3-one] | 20
CC12CCC3C4CCC(=O)C(Cl)=C4CCC3C1CCC2(O)C(F)(F)F (stereo not drawn) [17β-Hydroxy-17α-trifluoromethyl-4-chloro-estr-4-en-3-one] | 41
CC1CC2=CC(=O)CCC2(C)C2CCC3(C)C(CCC3(O)C(F)(F)F)C12 (stereo not drawn) [17β-Hydroxy-17α-trifluoromethyl-7α-methyl-androst-4-en-3-one] | 30
CC1CC2=CC(=O)CCC2C2CCC3(C)C(CCC3(O)C(F)(F)F)C12 (stereo not drawn) [17β-Hydroxy-17α-trifluoromethyl-7α-methyl-estr-4-en-3-one] | 40
C[C@]12CCC(=O)C=C1CC[C@@H]1[C@@H]2CC[C@@]2(C)[C@H]1CC[C@@]2(O)C(F)(F)F [17β-Hydroxy-17α-trifluoromethyl-androst-4-en-3-one] | 9.4
C[C@]1(O)CC[C@H]2[C@@H]3CCC4=CC(=O)CCC4=C3C=C[C@@]21C [R 1881 (Methyltrienolone), Methyltrienolone, reference compound] | 100
